# Experimental data as given in patent US4973673A, “Serine analogs of BU-3608 antibiotics” (Bristol-Myers Company, priority 1988, dated 1990).
# Read-outs that look alike come from different tables or passages of the source.
# Key:
# A. flavus FA21436 = test: Serial agar dilution MIC, Sabouraud dextrose agar; format: cell-based; details: Aspergillus flavus, pH 7.0, 40 hours at 28° C.
# Procedure: (§1) Antifungal activities of representative compounds of the present invention were evaluated both in vitro and in vivo. The minimum inhibitory concentrations (MICs) against various fungi were determined by serial agar dilution method using Sabouraud dextrose agar. Thus, approximately 0.003 ml of fungal suspension containing 10^6 cells/ml was applied to the surface of agar plates containing the test antibiotics.
# A. fumigatus IAM2034 [1] = test: Serial agar dilution MIC, Sabouraud dextrose agar; format: cell-based; details: Aspergillus fumigatus, pH 7.0, 40 hours at 28° C.
# Procedure: as §1
# [2] = tested on: Aspergillus fumigatus IAM2530; test: Serial agar dilution MIC, Sabouraud dextrose agar; format: cell-based; details: pH 7.0, 40 hours at 28° C.
# Procedure: as §1
# [3] = tested on: Blastomyces dermatitidis D40; test: Serial agar dilution MIC, Sabouraud dextrose agar; format: cell-based; details: pH 7.0, 40 hours at 28° C.
# Procedure: as §1
# C. albicans A9540 [4] = test: Serial agar dilution MIC, Sabouraud dextrose agar; format: cell-based; details: Candida albicans, pH 7.0, 40 hours at 28° C.
# Procedure: as §1
# C. neoformans IAM4514 [5] = test: Serial agar dilution MIC, Sabouraud dextrose agar; format: cell-based; details: Cryptococcus neoformans, pH 7.0, 40 hours at 28° C.
# Procedure: as §1
# Candida albicans IAM4888 = test: Serial agar dilution MIC, Sabouraud dextrose agar; format: cell-based; details: pH 7.0, 40 hours at 28° C.
# Procedure: as §1
# [6] = tested on: Cryptococcus neoformans D49; test: Serial agar dilution MIC, Sabouraud dextrose agar; format: cell-based; details: pH 7.0, 40 hours at 28° C.
# Procedure: as §1
# [7] = tested on: Fusarium moniliforme A2284; test: Serial agar dilution MIC, Sabouraud dextrose agar; format: cell-based; details: Fusarium verticillioides, pH 7.0, 40 hours at 28° C.
# Procedure: as §1
# Mucor spinosus IFO5317 = test: Serial agar dilution MIC, Sabouraud dextrose agar; format: cell-based; details: pH 7.0, 40 hours at 28° C.
# Procedure: as §1
# [8] = tested on: Petriellidium boydii IFO8073; test: Serial agar dilution MIC, Sabouraud dextrose agar; format: cell-based; details: Scedosporium boydii, pH 7.0, 40 hours at 28° C.
# Procedure: as §1
# [9] = tested on: Sporothrix schenckii IFO8158; test: Serial agar dilution MIC, Sabouraud dextrose agar; format: cell-based; details: pH 7.0, 40 hours at 28° C.
# Procedure: as §1
# T. mentagrophytes #4329 = test: Serial agar dilution MIC, Sabouraud dextrose agar; format: cell-based; details: Trichophyton mentagrophytes, pH 7.0, 40 hours at 28° C.
# Procedure: as §1
# [10] = tested on: Trichophyton mentagrophytes D155; test: Serial agar dilution MIC, Sabouraud dextrose agar; format: cell-based; details: pH 7.0, 40 hours at 28° C.
# Procedure: as §1
# C. albicans A9540 [11] = test: In vivo antifungal activity, intravenous infection in mice; design: species or system Male ICR mice; details: Candida albicans, 480 h, survival on 20th day, read-out: PD50 (50% protective dose)
# Procedure: (§2) In vivo antifungal activities were evaluated against intravenous infections with Candida albicans A9540, Cryptococcus neoformans IAM4514 and Aspergillus fumigatus IAM2034 in mice. Candida albicans and Cryptococcus neoformans were cultured for 18 and 48 hours, respectively, at 28° C. in YGP medium [yeast extract(0.2%), glucose(1.5%), peptone(0.5%), K2 HPO4 (0.05%) and MgSO4 (0.05%)] and suspended in saline. Aspergillus fumigatus was cultured for 7 days at 28° C. on YGP agar slant and suspended in saline. Spores were collected by filtering fungal suspension through gauze. Male ICR mice weighing 20 to 24 g were infected intravenously with about 10 times the median lethal dose of the fungi.
# (§3) Test compounds were administered at various doses to groups of 5 mice each intravenously either once just after fungal challenge (day 0) or once daily for 5 days from day 0 to day 4 (qd×5). The 50% protective dose (PD50) was calculated from survival rates recorded on the 20th day after fungal challenge. All control animals died within 7 to 15 days after fungal infection.
# [12] = tested on: calcium ion and calmodulin-dependent cyclic nucleotide phosphodiesterase; details: background statement; cited from earlier work
# A. fumigatus IAM2034 [13] = test: In vivo antifungal activity, intravenous infection in mice; design: species or system Male ICR mice; details: Aspergillus fumigatus, 480 h, survival on 20th day, read-out: PD50 (50% protective dose)
# Procedure: as §2, §3
# C. neoformans IAM4514 [14] = test: as above; design: species or system Male ICR mice; details: Cryptococcus neoformans, 480 h, survival on 20th day, read-out: PD50 (50% protective dose)
# Procedure: as §2, §3
# mice = test: Acute toxicity (LD50) in mice, single intravenous dose; format: in vivo; details: at 600 mg/kg, the highest dose tested
# Procedure: The LD50 for N,N-dimethyl BU-3608 FA-2 was determined in mice after a single intravenous dose.
# [15] = single dose just after challenge
Structure (SMILES),MIC (A. flavus FA21436) [µg/mL],MIC (A. fumigatus IAM2034 [1]) [µg/mL],MIC [2] [µg/mL],MIC [3] [µg/mL],MIC (C. albicans A9540 [4]) [µg/mL],MIC (C. neoformans IAM4514 [5]) [µg/mL],MIC (Candida albicans IAM4888) [µg/mL],MIC [6] [µg/mL],MIC [7] [µg/mL],MIC (Mucor spinosus IFO5317) [µg/mL],MIC [8] [µg/mL],MIC [9] [µg/mL],MIC (T. mentagrophytes #4329) [µg/mL],MIC [10] [µg/mL],ED50 (C. albicans A9540 [11]; [15]) [mg/kg],other results
CN[C@@H]1[C@H](O[C@@H]2OC[C@@H](O)[C@H](O)[C@H]2O)[C@@H](O)[C@H](O[C@H]2c3cc(C)c(C(=O)N[C@H](CO)C(=O)O)c(O)c3-c3c(cc4c(c3O)C(=O)c3cc(OC)cc(O)c3C4=O)[C@@H]2O)O[C@@H]1C [BU-3608 FA-1],6.3,6.3,3.1,3.1,12.5,0.8,6.3,0.8,6.3,> 100,12.5,1.6,6.3,6.3,18,
CN[C@@H]1[C@H](O)[C@@H](O)[C@H](O[C@H]2c3cc(C)c(C(=O)N[C@H](CO)C(=O)O)c(O)c3-c3c(cc4c(c3O)C(=O)c3cc(OC)cc(O)c3C4=O)[C@@H]2O)O[C@@H]1C [Des-xylosyl BU-3608 FA-1],50,6.3,6.3,6.3,3.1,1.6,3.1,1.6,> 100,12.5,> 100,6.3,12.5,12.5,,
COc1cc(O)c2c(c1)C(=O)c1c(cc3c(c1O)-c1c(cc(C)c(C(=O)N[C@H](CO)C(=O)O)c1O)[C@H](O[C@@H]1O[C@H](C)[C@H](N)[C@H](O[C@@H]4OC[C@@H](O)[C@H](O)[C@H]4O)[C@H]1O)[C@H]3O)C2=O [BU-3608 FA-2],6.3,6.3,3.1,3.1,6.3,0.8,6.3,0.8,6.3,> 100,25,1.6,6.3,6.3,7.4,
CC(=O)Cc1cc2c(c(O)c1C(=O)O)-c1cc3c(c(O)c1CC2)C(=O)c1c(O)cc(O)cc1C3=O [KS-619-1],,,,,,,,,,,,,,,,inhibitor of calcium ion and calmodulin-dependent cyclic nucleotide phosphodiesterase [12]: inhibitor of calcium ion and calmodulin-dependentcyclic nucleotide phosphodiesterase
COc1cc(O)c2c(c1)C(=O)c1c(cc3c(c1O)-c1c(cc(C)c(C(=O)N[C@H](CO)C(=O)O)c1O)[C@H](O[C@@H]1O[C@H](C)[C@H](N)[C@H](O)[C@H]1O)[C@H]3O)C2=O [Des-xylosyl BU-3608 FA-2],50,12.5,12.5,6.3,3.1,3.1,3.1,3.1,> 100,25,> 100,6.3,12.5,12.5,,
"COc1cc(O)c2c(c1)C(=O)c1c(cc3c(c1O)-c1c(cc(C)c(C(=O)N[C@H](CO)C(=O)O)c1O)[C@H](O[C@@H]1O[C@H](C)[C@H](N(C)C)[C@H](O)[C@H]1O)[C@H]3O)C2=O [Des-xylosyl N,N-dimethyl BU-3608 FA-2]",12.5,6.3,6.3,3.1,6.3,1.6,6.3,1.6,50,25,100,3.1,6.3,6.3,,
"COc1cc(O)c2c(c1)C(=O)c1c(cc3c(c1O)-c1c(cc(C)c(C(=O)N[C@H](CO)C(=O)O)c1O)[C@H](O[C@@H]1O[C@H](C)[C@H](N(C)C)[C@H](O[C@@H]4OC[C@@H](O)[C@H](O)[C@H]4O)[C@H]1O)[C@H]3O)C2=O [N,N-dimethyl BU-3608 FA-2]",25,3.1,3.1,6.3,6.3,0.8,3.1,0.8,25,,,1.6,6.3,12.5,9,ED50 (A. fumigatus IAM2034 [13]; qd × 5 (day 0 to day 4)): 15 mg/kg; ED50 (A. fumigatus IAM2034 [13]; [15]): 36 mg/kg; ED50 (C. albicans A9540 [11]; qd × 5 (day 0 to day 4)): 7.5 mg/kg; ED50 (C. neoformans IAM4514 [14]; qd × 5 (day 0 to day 4)): 2.8 mg/kg; ED50 (C. neoformans IAM4514 [14]; [15]): 11 mg/kg; LD50 determination: lethal toxicity and toxic signs (mice): neither lethal toxicity nor any significant toxic sign was observed
